Experimental data taken from PubChem BioAssay (NCI).
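Dose response: 5 concentrations. Exposure: 48 h. Format: 96-well plates. Endpoint: linear interpolation; highest concentration if not reached. The concentration for full growth arrest is given as TGI.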

How the values were obtained:
Assay in all cases: growth of human tumour cells (NCI), 48 h
786-0 renal = tested on: 786-0 renal
A498 renal = tested on: A498 renal
A549 NSCLC = tested on: A549 NSCLC
BT-549 breast = tested on: BT-549 breast
CAKI-1 renal = tested on: CAKI-1 renal
COLO 205 colon = tested on: COLO 205 colon
DU-145 prostate = tested on: DU-145 prostate
EKVX NSCLC = tested on: EKVX NSCLC
HCC-2998 colon = tested on: HCC-2998 colon
HCT-116 colon = tested on: HCT-116 colon
HCT-15 colon = tested on: HCT-15 colon
HL-60(TB) leukemia = tested on: HL-60(TB) leukemia
HOP-92 NSCLC = tested on: HOP-92 NSCLC
HS 578T breast = tested on: HS 578T breast
HT29 colon = tested on: HT29 colon
IGROV1 ovarian = tested on: IGROV1 ovarian
K-562 leukemia = tested on: K-562 leukemia
KM12 colon = tested on: KM12 colon
LOX IMVI melanoma = tested on: LOX IMVI melanoma
M14 melanoma = tested on: M14 melanoma
MALME-3M melanoma = tested on: MALME-3M melanoma
MCF7 breast = tested on: MCF7 breast
MDA-MB-231 breast = tested on: MDA-MB-231 breast
MDA-MB-435 = tested on: MDA-MB-435
MDA-N = tested on: MDA-N
MOLT-4 leukemia = tested on: MOLT-4 leukemia
NCI-H226 lung = tested on: NCI-H226 lung
NCI-H460 lung = tested on: NCI-H460 lung
NCI-H522 lung = tested on: NCI-H522 lung
NCI/ADR-RES ovarian = tested on: NCI/ADR-RES ovarian
OVCAR-3 ovarian = tested on: OVCAR-3 ovarian
OVCAR-4 ovarian = tested on: OVCAR-4 ovarian
OVCAR-5 ovarian = tested on: OVCAR-5 ovarian
OVCAR-8 ovarian = tested on: OVCAR-8 ovarian
PC-3 prostate = tested on: PC-3 prostate
RPMI-8226 leukemia = tested on: RPMI-8226 leukemia
RXF 393 renal = tested on: RXF 393 renal
SF-268 CNS = tested on: SF-268 CNS
SF-539 CNS = tested on: SF-539 CNS
SK-MEL-2 melanoma = tested on: SK-MEL-2 melanoma
SK-MEL-28 melanoma = tested on: SK-MEL-28 melanoma
SK-MEL-5 melanoma = tested on: SK-MEL-5 melanoma
SK-OV-3 ovarian = tested on: SK-OV-3 ovarian
SN12C renal = tested on: SN12C renal
SNB-19 CNS = tested on: SNB-19 CNS
SNB-75 CNS = tested on: SNB-75 CNS
SR leukemia = tested on: SR leukemia
SW-620 colon = tested on: SW-620 colon
T-47D breast = tested on: T-47D breast
TK-10 renal = tested on: TK-10 renal
U251 CNS = tested on: U251 CNS
UACC-257 melanoma = tested on: UACC-257 melanoma
UACC-62 melanoma = tested on: UACC-62 melanoma
UO-31 renal = tested on: UO-31 renal
ACHN renal = tested on: ACHN renal
CCRF-CEM leukemia = tested on: CCRF-CEM leukemia
HOP-62 NSCLC = tested on: HOP-62 NSCLC
NCI-H23 lung = tested on: NCI-H23 lung
SF-295 CNS = tested on: SF-295 CNS

## CCOC(=O)CCC(NC(=O)c1ccc(Nc2nc3ccccc3nc2C(=O)OCC)s1)C(=O)OCC (configuration not stated)
786-0 renal
  TGI: > 100 µM
A498 renal
  TGI: > 100 µM
A549 NSCLC
  TGI: > 100 µM
BT-549 breast
  TGI: > 100 µM
CAKI-1 renal
  TGI: > 100 µM
COLO 205 colon
  TGI: > 100 µM
DU-145 prostate
  TGI: > 100 µM
EKVX NSCLC
  TGI: > 100 µM
HCC-2998 colon
  TGI: > 100 µM
HCT-116 colon
  TGI: > 100 µM
HCT-15 colon
  TGI: > 100 µM
HL-60(TB) leukemia
  TGI: > 100 µM
HOP-92 NSCLC
  TGI: > 100 µM
HS 578T breast
  TGI: > 100 µM
HT29 colon
  TGI: > 100 µM
IGROV1 ovarian
  TGI: > 100 µM
K-562 leukemia
  TGI: > 100 µM
KM12 colon
  TGI: > 100 µM
LOX IMVI melanoma
  TGI: > 100 µM
M14 melanoma
  TGI: > 100 µM
MALME-3M melanoma
  TGI: > 100 µM
MCF7 breast
  TGI: > 100 µM
MDA-MB-231 breast
  TGI: > 100 µM
MDA-MB-435
  TGI: > 100 µM
MDA-N
  TGI: > 100 µM
MOLT-4 leukemia
  TGI: > 100 µM
NCI-H226 lung
  TGI: > 100 µM
NCI-H460 lung
  TGI: > 100 µM
NCI-H522 lung
  TGI: > 100 µM
NCI/ADR-RES ovarian
  TGI: > 100 µM
OVCAR-3 ovarian
  TGI: > 100 µM
OVCAR-4 ovarian
  TGI: > 100 µM
OVCAR-5 ovarian
  TGI: > 100 µM
OVCAR-8 ovarian
  TGI: > 100 µM
PC-3 prostate
  TGI: > 100 µM
RPMI-8226 leukemia
  TGI: > 100 µM
RXF 393 renal
  TGI: > 100 µM
SF-268 CNS
  TGI: > 100 µM
SF-539 CNS
  TGI: > 100 µM
SK-MEL-2 melanoma
  TGI: > 100 µM
SK-MEL-28 melanoma
  TGI: > 100 µM
SK-MEL-5 melanoma
  TGI: > 100 µM
SK-OV-3 ovarian
  TGI: > 100 µM
SN12C renal
  TGI: > 100 µM
SNB-19 CNS
  TGI: > 100 µM
SNB-75 CNS
  TGI: > 100 µM
SR leukemia
  TGI: > 100 µM
SW-620 colon
  TGI: > 100 µM
T-47D breast
  TGI: > 100 µM
TK-10 renal
  TGI: > 100 µM
U251 CNS
  TGI: > 100 µM
UACC-257 melanoma
  TGI: > 100 µM
UACC-62 melanoma
  TGI: > 100 µM
UO-31 renal
  TGI: > 100 µM

## COC(=O)/C=C\C(C#N)(C#N)N=Cc1ccc(Br)cc1
786-0 renal
  TGI: > 48.9 µM
A498 renal
  TGI: 29.8 µM
A549 NSCLC
  TGI: > 74.8 µM
ACHN renal
  TGI: 8.92 µM
BT-549 breast
  TGI: 25.2 µM
CAKI-1 renal
  TGI: 5.47 µM
CCRF-CEM leukemia
  TGI: 5.91 µM
COLO 205 colon
  TGI: 9.55 µM
DU-145 prostate
  TGI: 16.7 µM
EKVX NSCLC
  TGI: 29.6 µM
HCC-2998 colon
  TGI: 32.1 µM
HCT-116 colon
  TGI: > 60.5 µM
HCT-15 colon
  TGI: 11.8 µM
HL-60(TB) leukemia
  TGI: 1.27 µM
HOP-62 NSCLC
  TGI: 33.4 µM
HOP-92 NSCLC
  TGI: 6.34 µM
HS 578T breast
  TGI: 49.7 µM
HT29 colon
  TGI: 6.22 µM
IGROV1 ovarian
  TGI: 37 µM
K-562 leukemia
  TGI: > 100 µM
KM12 colon
  TGI: 29.3 µM
LOX IMVI melanoma
  TGI: 5.26 µM
M14 melanoma
  TGI: 22.6 µM
MALME-3M melanoma
  TGI: 12.4 µM
MCF7 breast
  TGI: 17.1 µM
MDA-MB-231 breast
  TGI: 8.48 µM
MDA-MB-435
  TGI: 22.4 µM
MDA-N
  TGI: 20.1 µM
MOLT-4 leukemia
  TGI: > 22.4 µM
NCI-H226 lung
  TGI: 20.6 µM
NCI-H23 lung
  TGI: 49.5 µM
NCI-H460 lung
  TGI: 40.5 µM
NCI-H522 lung
  TGI: 2.95 µM
NCI/ADR-RES ovarian
  TGI: 76 µM
OVCAR-3 ovarian
  TGI: 24.9 µM
OVCAR-4 ovarian
  TGI: 23.7 µM
OVCAR-5 ovarian
  TGI: 35.8 µM
OVCAR-8 ovarian
  TGI: 21.5 µM
PC-3 prostate
  TGI: 32.4 µM
RPMI-8226 leukemia
  TGI: 5.74 µM
RXF 393 renal
  TGI: 17.8 µM
SF-268 CNS
  TGI: 31.1 µM
SF-295 CNS
  TGI: 34.7 µM
SK-MEL-2 melanoma
  TGI: 44 µM
SK-MEL-28 melanoma
  TGI: 32.1 µM
SK-MEL-5 melanoma
  TGI: 3.92 µM
SK-OV-3 ovarian
  TGI: 33.6 µM
SN12C renal
  TGI: 17.8 µM
SNB-19 CNS
  TGI: 55.2 µM
SNB-75 CNS
  TGI: 28.8 µM
SR leukemia
  TGI: > 100 µM
SW-620 colon
  TGI: > 22.4 µM
T-47D breast
  TGI: 14 µM
TK-10 renal
  TGI: 6.59 µM
U251 CNS
  TGI: 33.3 µM
UACC-257 melanoma
  TGI: 28 µM
UACC-62 melanoma
  TGI: 16.5 µM
UO-31 renal
  TGI: 15.8 µM
